According to patent publication US20080021044A1 (priority 2006, published 2008):

Experiment: Solubility of the compound of formula (I) as a function of time in aqueous solvents (HPLC)
Assay type: physicochemical
Conditions: thermodynamic from solid; for solubility at 1 h / solubility at 2 h / solubility at 4 h / solubility at 24 h / solubility at 48 h / solubility at 0.5 h: 25° C. water bath, agitated; for solubility at 0.5 h: ½ hr; for solubility at 7 days: kept at room temperature with no agitation
Method: The sample vials were pulled out at each time point, the pH was measured and the sample was filtered a 0.45 μm PTFE membrane filter. The filtrate was appropriately diluted with the dilution solvent and the concentration of the compound was measured using HPLC. HPLC conditions were as follows: Method: Isocratic method, 70% mobile phase A −30% mobile phase B; Column: Supelco Discovery HS-C18, 3 μm, 4.6×150mm; Mobile Phase A: 0.05% TFA in water; B: 0.05% TFA in acetonitrile; Flow rate: 1.0 mL/min; Detection: UV: Wavelength: 240 nm, bandwidth 4 nm; Reference wavelength: 450 nm, bandwidth 80 nm; Run time: 6 min; Injection volume: 10 μL.

[1] = aqueous buffer, 0.1N NaOH (pH ˜12.8)
[2] = aqueous buffer, borate buffer pH 8
[3] = aqueous buffer, borate buffer pH 10
[4] = aqueous buffer, citrate buffer pH 2
[5] = aqueous buffer, citrate buffer pH 4
[6] = aqueous buffer, citrate buffer pH 6
[7] = simulated gastric fluid, 0.1N HCl
[8] = simulated intestinal fluid (SIF), fassgf or other biorelevant, SIF (pH ˜6.75)

Cc1cnc(NCC(F)(F)c2ccccc2)c(=O)n1CC(=O)NCCONC(=N)N [compound of formula (I), N-[2-[[(diaminomethylene)amino]oxy]ethyl]-3-[(2,2-difluoro-2-phenylethyl)amino]-6-methyl-2-oxo-1(2H)-pyrazineacetamide] showed a solubility at 1 h [1] of 980 µg/mL, a solubility at 2 h [1] of 980 µg/mL and a solubility at 4 h [1] of 1000 µg/mL. The solubility at 24 h [1] was 1000 µg/mL, the solubility at 48 h [1] was 990 µg/mL and the solubility at 0.5 h [1] was 920 µg/mL. For the same molecule, the solubility at 4 h [2] was 1300 µg/mL, the solubility at 24 h [2] was 1200 µg/mL and the solubility at 48 h [2] was 1200 µg/mL. For the same molecule, the solubility at 4 h [3] was 1000 µg/mL, the solubility at 24 h [3] was 1000 µg/mL and the solubility at 48 h [3] was 1000 µg/mL. It also gave a solubility at 1 h [4] of 8700 µg/mL, a solubility at 2 h [4] of 8800 µg/mL and a solubility at 4 h [4] of 10400 µg/mL. The solubility at 24 h [4] was 6900 µg/mL, the solubility at 48 h [4] was 7500 µg/mL and the solubility at 7 days [4] was 4000 µg/mL. The solubility at 0.5 h [4] was 7600 µg/mL, the solubility at 1 h [5] was 2400 µg/mL and the solubility at 2 h [5] was 2800 µg/mL. The solubility at 4 h [5] was 2500 µg/mL, the solubility at 24 h [5] was 2700 µg/mL and the solubility at 48 h [5] was 2700 µg/mL. It also gave a solubility at 0.5 h [5] of 2100 µg/mL, a solubility at 1 h [6] of 1800 µg/mL and a solubility at 2 h [6] of 1800 µg/mL. For the same molecule, the solubility at 4 h [6] was 2000 µg/mL, the solubility at 24 h [6] was 1600 µg/mL and the solubility at 48 h [6] was 1500 µg/mL. It also gave a solubility at 7 days [6] of 1300 µg/mL, a solubility at 0.5 h [6] of 2100 µg/mL and a solubility at 1 h [7] of 40200 µg/mL. For the same molecule, the solubility at 2 h [7] was 40900 µg/mL, the solubility at 4 h [7] was 43000 µg/mL and the solubility at 24 h [7] was 40400 µg/mL. For the same molecule, the solubility at 48 h [7] was 39200 µg/mL, the solubility at 7 days [7] was 26900 µg/mL and the solubility at 0.5 h [7] was 31600 µg/mL. The solubility (simulated intestinal fluid (SIF), 25 °C, pH 6.75, fassgf or other biorelevant) was 2700 to 2800 µg/mL, the solubility at 4 h [8] was 2800 µg/mL and the solubility at 24 h [8] was 2700 µg/mL. The solubility at 48 h [8] was 2700 µg/mL, the solubility at 4 h (water (pH ˜9)) was 1100 µg/mL and the solubility at 24 h (water (pH ˜9)) was 1100 µg/mL. It also gave a solubility at 48 h (water (pH ˜9)) of 1100 µg/mL.
